Source: patent US10738024B2, “Compounds for treatment of angiogenesis-mediated diseases” (Indiana University Research and Technology Corporation, priority 2013, dated 2020)
“Also recorded” adds a separate entry of the source.

Key:
[1] = tested on: oxygen-induced retinopathy (OIR); assay: Oxygen-induced retinopathy (OIR) mouse model, intravitreal injection; assay type: in vivo, C57BL/6 mice; settings: single intravitreal dose, estimated 1 μM, injected P12, read P17; listed as SH-11037 (6c)
Protocol: Particularly, neonatal C57BL/6 mice (n=3-4 pups per group) were exposed to 75% oxygen from postnatal day 7 (P7) until P12 and brought to room air to cause ischemia and extensive neovessel formation at P17. The hyperoxia obliterates the normal retinal vasculature, prompting aberrant overgrowth including intravitreal vascular tufts, once returned to normoxia. Further, mice were injected with PBS alone (vehicle) or PBS containing SH-11037 (6c) to give the estimated intravitreal concentrations of 1.0 μM using a 33G needle, under isoflurane anesthesia at the time of return to room air on P12. At P17, the mice were euthanized, eyes fixed, and retinal wholemounts were prepared.
Wholemounts were stained with AlexaFluor488-isolectin B4 and imaged on a Zeiss LSM700 confocal microscope. Neovascular area, as a percentage of total retinal area, was calculated using ImageJ with the SWIFT_NV plugin.

[2] = tested on: HUVECs; assay: EdU incorporation (DNA synthesis) in HUVECs; assay type: cell-based, human; settings: 24 hours treatment, 10 μM EdU pulse; listed as SH-11052 (2)
Protocol: (§1) In order to confirm the inhibition of cell proliferation, incorporation of 5-ethynyl-2′-deoxyuridine (EdU) into endothelial cells in the presence of SH-11052 (2) was further monitored. Particularly, cells (25,000 per coverslip) were seeded onto coverslips coated with Attachment Factor (Cell Systems, Kirkland, Wash., USA) placed in a 6-well plate and incubated with the indicated concentrations of SH-11052 (2) in EGM-2 for 24 hours at 37° C. and 5% CO2. The cells were then serum starved for 8 hours and the medium was replaced with EGM-2 containing 10 μM EdU. The plate was further incubated for another 8 hours before processing the cells for detection of labeled DNA (according to the manufacturer's instructions for the Click-iT EdU assay kit). Images were taken using an EVOS fluorescence microscope (AMG, Mill Creek, Wash., USA) and the number of DAPI stained and EdU stained cells were counted in six randomly chosen fields using ImageJ software.

[3] = tested on: PTGS2 (COX2); assay: qRT-PCR of NF-κB target gene PTGS2 in TNF-α challenged cells; assay type: cell-based, human; settings: 10 ng/ml TNF-α for 24 hours; listed as SH-11052 (2)
Protocol: Similarly, the mRNA expression of the pro-inflammatory molecules IL8, PTGS2 (COX2) and CCL2 (MCP-1), inducible by NF-κB, were analyzed in the presence of SH-11052 (2). Cells (10^5 per well) were seeded in a 6-well plate and incubated for 24 hours at 37° C. and 5% CO2. The cells were then starved in 0.1% serum-EBM-2 for 12 hours followed by incubation for an hour in the presence of different concentrations of SH-11052 (2). The cells were then challenged for 24 hours with 10 ng/ml TNF-α. Following incubation, cells were lysed and RNA was isolated using Trizol reagent (Life Technologies). cDNA was prepared from 80 ng total RNA using random primers and M-MuLV Reverse Transcriptase (New England Biolabs, Ipswich, Mass., USA). RT-PCR reactions were set up using the TaqMan Fast Gene Expression Assay Kit according to the manufacturer's instructions. FAM-labeled TaqMan probes for PTGS2 (Hs00153133_m1), CCL2 (Hs00234140_m1), IL8 (Hs00174103_m1), and control, TBP (Hs99999910_m1), genes were used to monitor the expression levels of these genes. The qRT-PCR plate was read in a ViiATM 7 qPCR system (Life Technologies) and the data were analyzed using the ΔΔCt method. The expression levels of genes were normalized to TBP gene expression and calibrated to the DMSO-treated, unstimulated sample.

[4] = tested on: HRECs; assay: EdU incorporation (DNA synthesis) in HRECs; assay type: cell-based, human; settings: 24 hours treatment, 10 μM EdU pulse; listed as SH-11052 (2)
Protocol: as §1

[5] = tested on: VCAM-1; assay: VCAM-1 protein expression in HRECs exposed to TNF-α (immunofluorescence); assay type: cell-based, human; settings: 10 ng/ml TNF-α for 24 hours
Protocol: Cells (25,000 per coverslip) were seeded onto coverslips coated with Attachment Factor (Cell Systems, Kirkland, Wash., USA) and incubated at 37° C. and 5% CO2 for 24 hours in EGM-2. The cells were starved in 0.1% serum-EBM-2 for 8 hours followed by incubation in 0.1% serum-EBM-2 medium for an hour in the presence of different concentrations of SH-11052 (2). The cells were challenged with 10 ng/ml of TNF-α for 24 hours and fixed with 4% paraformaldehyde solution for 20 minutes at room temperature. The coverslips were quickly washed three times in TBS and blocked using 10% block solution (DAKO) prepared in 1×TBS-1% BSA buffer. The coverslips were incubated with the antibody against VCAM-1 (1:100 dilution), a cell adhesion molecule specifically expressed on endothelial cells, whose expression is induced by NF-κB upon TNF-α signaling, for 16 hours at 4° C. followed by three washes in TBS-0.1% BSA buffer. Dylight 555-conjugated secondary antibody (1:200) was used to probe for the VCAM-1 antibody. After three washes in TBS-0.1% BSA, the coverslips were mounted using Vectashield mounting medium containing DAPI nuclear stain. The cells were imaged using an LSM 700 confocal microscope. The image was analyzed for fluorescence signal intensity using MetaMorph software (Molecular Devices, Sunnyvale, Calif., USA).

| Compound | neovascular area / neovascularization in vivo [1] | DNA synthesis (EdU incorporation) in HUVECs [2] | mRNA expression of PTGS2 (COX2) [3] | DNA synthesis (EdU incorporation) in HRECs [4] | VCAM-1 protein expression [5] |
| --- | --- | --- | --- | --- | --- |
| COc1ccc(CC2COc3cc(OC)c(OC)c(OC)c3C2=O)cc1OC(=O)[C@H](Cc1ccccc1)NC(=O)OC(C)(C)C (stereo partly drawn) [Compound 6c, (2S)-2-methoxy-5-((5,6,7-trimethoxy-4-oxochroman-3-yl)methyl)phenyl 2-((tert-butoxycarbonyl)amino)-3-phenylpropanoate] | blocked neovascularization in vivo; also recorded: significantly decreased neovascular area | – | – | – | – |
| COc1ccc(CC2COc3cc(OC)c(O)c(O)c3C2=O)cc1O (single isomer, unassigned) [Compound 2] | – | blocked EdU incorporation; also recorded: significantly inhibited in a dose dependent manner | decreased the expression | blocked EdU incorporation; also recorded: significantly inhibited in a dose dependent manner | significant dose-dependent decrease |
